Test results reported in patent US20160115540A1, “PRODRUGS AND DRUGS” (Biogen MA Inc., priority 2013, published 2016).
Structures can show the parent of a compound that is named as a salt.

Test system: kidney
Assay: Transcriptional profiling on Affymetrix GeneChips, single dose, naïve mice: kidney
Format: in vivo, C57BL/6 mice
Details: 100MMF-vs-Veh
Experimental: Treated mice were sacrificed at 2, 7, or 12 hours. Tissues (liver, spleen, kidney, jejunum, cortex, hippocampus, striatum and whole blood) were collected and analyzed by transcriptional profiling on mouse Affymetrix GeneChips.
Tissues (liver, spleen, kidney, jejunum, cortex, hippocampus, striatum and whole blood) were collected and analyzed by transcriptional profiling on mouse Affymetrix GeneChips.
Animals were exposed to CO2 and whole blood collected via cardiac puncture. Two 100 μl aliquots of whole blood were collected in 1.5 mL microcentrifuge tubes and snap frozen in liquid nitrogen. Peripheral (liver, spleen, kidney and jejunum) and CNS brain (cerebellum, hippocampus, striatum and cortex) tissues were harvested and snap frozen in liquid nitrogen, with special care taken to collect tissues of similar size and from the same location. All samples were stored at −80° C. until RNA extraction was conducted.
For RNA preparation, frozen tissues were placed in 2 mL RNAse-free 96-well blocks with 1.5 mL QIAzol Lysis Reagent (QIAgen) and a 3.2 mm stainless steel bead (BioSpec Products, Bartlesville, Okla.). Tissues were disrupted for four cycles of 45 seconds in a Mini-Beadbeater (Biospec Products). RNA was extracted in chloroform and the aqueous phase was mixed with an equal volume of 70% ethanol. Extracted RNA was applied to RNeasy 96 plates and purified by the spin method according to the manufacturer's protocol (RNeasy 96 Universal Tissue Protocol, QIAgen, Hilden Germany).
Automated sample amplifications and biotin labelings were carried out using the NuGEN Ovation RNA Amplification system V2 (Cat #3100), Ovation WB reagent (Cat #1300) and Encore Biotin module (Cat #4200) (NuGEN Technologies, Inc, San Carlos, Calif.) according to manufacturer's recommendations using an Arrayplex automated liquid handler (Beckman Coulter, Indianapolis, Ind.). Two micrograms of biotin labeled sscDNA probe were hybridized to Affymetrix GeneChip Affymetrix HT_MG-430_PM plate arrays with modified conditions as described in Allaire et al. Washing and staining of the hybridized arrays were completed as described in the GeneChip Expression analysis technical manual for HT plate arrays using the Genechip® Array Station (Affymetrix, Santa Clara, Calif.) with modifications as described in Allaire et al. The processed GeneChip® plate arrays were scanned using GeneTitan scanner (Affymetrix, Santa Clara, Calif.).
Affymetrix scans were subject to quality control (QC) measures. These tests included a visual inspection of the distribution of raw signal intensities and an assessment of RNA degradation, relative log expression (RLE), and normalized unsealed standard error (NUSE). All sample scans that passed these QC metrics were included in the analysis.
All CEL files were subjected to GC-content-based Robust Multi-array Average (GCRMA) normalization (version 2.20.0) (Irizarry R A, et al. Nucleic Acids Res 2003; 31:e15; Li C, et al. Genome Biol 2001; 2:[…]0032). Expression levels were log (base 2) transformed.
All calculations and analyses were carried out using R (version 2.11.1) and Bioconductor computational tools (Gentleman R. Springer Science+Business Media 2005).

## COC(=O)/C=C/C(=O)O [MMF, monomethyl fumarate]
7 h
  FC Gsr (1421816_PM_at): 1.83
  FC Gsta3 (1423436_PM_at): 1.99
  FC Gsta3 (1423437_PM_at): 2.95
  FC Gsta4 1416368_PM_at: 1.85
  FC Havcr1 1434716_PM_at: 3.22
  FC Hfe 1450702_PM_at: 1.57
  FC Hist1h2be 1440330_PM_at: 1.98
  FC Hist2h3c1 1442051_PM_at: 1.65
  FC Hmox1 1448239_PM_at: 7.48
  FC Hsp90aa1 1426645_PM_at: 1.50
  FC Ido2 1425778_PM_at: −1.52
  FC Ikbkg 1421209_PM_s_at: 1.77
  FC Ikbkg 1435646_PM_at: 1.80
  FC Ikbkg 1454690_PM_at: 1.61
  FC Il18 1417932_PM_at: −1.52
  FC Kif20b 1439695_PM_a_at: −2.61
  FC Lcp1 1415983_PM_at: 1.59
  FC Lcp1 1448160_PM_at: 1.56
  FC Lpar2 1442291_PM_at: 1.84
  FC Lrp8 (1440882_PM_at): 2.19
  FC Mctp2 1457707_PM_at: 1.54
  FC Mfsd2a 1428223_PM_at: −3.38
  FC Mt1 1422557_PM_s_at: 1.89
  FC Mt2 1428942_PM_at: 2.71
  FC Mthfd2 1419253_PM_at: 1.89
  FC Mthfd2 1419254_PM_at: 1.68
  FC Napsa 1430744_PM_at: −1.79
  FC Ndrg1 1423413_PM_at: 1.52
  FC Ndrg1 1450977_PM_s_at: 1.54
  FC Nmral1 1430530_PM_s_at: −1.52
  FC Nqo1 (1423627_PM_at): 1.96
  FC Nrg1 1456524_PM_at: 1.81
  FC Nudt11 1426887_PM_at: 1.62
  FC Pank1 1457110_PM_at: −1.79
  FC Pank2 1452733_PM_at: −1.94
  FC Pard3 1434775_PM_at: 1.53
  FC Pfkfb4 1456888_PM_at: 1.69
  FC Pgd 1423706_PM_a_at: 2.21
  FC Pgd 1438627_PM_x_at: 1.78
  FC Pgd (1436771_PM_x_at): 1.87
  FC Pgd (1437380_PM_x_at): 1.87
  FC Pir (1429001_PM_at): 2.63
  FC Ppm1e 1434990_PM_at: −1.53
  FC Rab38 1417700_PM_at: −1.57
  FC Rassf6 1429262_PM_at: 1.65
  FC Rdh10 1460632_PM_at: 1.68
  FC Rhof 1455902_PM_x_at: 1.66
  FC Rnf24 1436101_PM_at: −2.03
  FC Rock2 1451041_PM_at: 1.60
  FC Rundc3b 1434456_PM_at: 1.54
  FC Sema3c 1420696_PM_at: 1.66
  FC Slc7a1 1454992_PM_at: 1.62
  FC Slc9a8 1454865_PM_at: −1.68
  FC Slc16a6 1417884_PM_at: 1.55
  FC Slc20a1 1448568_PM_a_at: 1.70
  FC Slc40a1 1448566_PM_at: 1.51
  FC Slc48a1 1450410_PM_a_at: 1.58
  FC Smcp 1418358_PM_at: −1.96
  FC Sphk2 1426230_PM_at: −1.54
  FC Sqstm1 1450957_PM_a_at: 1.62
  FC Srxn1 (1419942_PM_at): 2.45
  FC Srxn1 (1425351_PM_at): 2.92
  FC Srxn1 (1426875_PM_s_at): 2.29
  FC Srxn1 (1451680_PM_at): 2.68
  FC Syn3 1435311_PM_s_at: −1.68
  FC Tardbp 1423723_PM_s_at: 1.62
  FC Tcte2 1425009_PM_at: −1.61
  FC Tiam2 1423186_PM_at: 2.27
  FC Tmem86a 1428758_PM_at: −1.56
  FC Tnfrsf12a 1418571_PM_at: 2.40
  FC Tnfrsf12a 1418572_PM_x_at: 2.45
  FC Trim7 1425743_PM_at: −1.59
  FC Trim7 1439352_PM_at: −1.55
  FC Tubb2a 1427347_PM_s_at: 1.52
  FC Txnrd1 1421529_PM_a_at: 1.72
  FC Txnrd1 (1424486_PM_a_at): 3.08
  FC Txnrd1 (1424487_PM_x_at): 2.37
  FC Upp2 1424969_PM_s_at: −3.63
  FC Upp2 1451548_PM_at: −4.00
  FC Uxs1 1426275_PM_a_at: 1.50
  FC Vwa1 1426399_PM_at: −1.69
  FC Wdr90 1426767_PM_at: −1.58
  FC Wnt5a 1436791_PM_at: 1.69
  FC Wnt5a 1448818_PM_at: 1.81
12 h
  FC Acot1 /// Acot2 1422997_PM_s_at: 1.51
  FC Aldh1a1 1416468_PM_at: 2.21
  FC Aldh1a7 (1418601_PM_at): 3.02
  FC Aox1 (1419435_PM_at): 2.23
  FC Arg2 1418847_PM_at: 2.70
  FC Atp11a 1421167_PM_at: −1.62
  FC C1qtnf3 1422606_PM_at: −1.57
  FC Cyp51 1422533_PM_at: −1.95
  FC Cyp51 1422534_PM_at: −1.79
  FC Egln3 1418649_PM_at: 1.71
  FC G6pd2 /// G6pdx 1422327_PM_s_at: 1.91
  FC Gbe1 1420654_PM_a_at: 1.51
  FC Gdf15 1418949_PM_at: 2.01
  FC Gm3776 /// Gsta1 /// Gsta2 1421041_PM_s_at: 1.68
  FC Gpr19 1421756_PM_a_at: 1.50
  FC Gsta2 (1421040_PM_a_at): 1.61
  FC Gsta3 (1423436_PM_at): 1.95
  FC Gsta3 (1423437_PM_at): 2.85
  FC Gsta4 1416368_PM_at: 1.95
